Test results reported in US20110142884A1, “Materials and Methods for Making Improved Micelle Compositions” (The Board of Trustees of the University of Illinois, priority 2002, published 2011).
≈ marks a conversion by molar mass, not a printed value. No end group written: not given here.

Tests used:
[1] = system: second order arterioles of the hamster cheek pouch microcirculation; assay: Hamster cheek pouch microcirculation, arteriolar diameter during suffusion; assay type: in vivo
Method: According to this example, the vasorelaxant effects of VIP in a SSM were determined according to the following method. Specifically, adult male golden Syrian hamsters were purchased from Sasco (Omaha, Nebr.). Adult male hamsters with spontaneous hypertension and their normotensive controls were purchased from the Canadian Hybrid Farms (Halls Harbour, NS, Canada). Hypertensive animals have been identified after cross-breeding of hamsters with hereditary cardiomyopathy and normal golden Syrian hamsters. These albino animals have previously been used in our laboratory (Rubinstein et al., Biochem. Biophys. Res. Commun. 183:1117-1123 (1992); Artwohl et al., FASEB J. 10:A629 (1996)). Animals were anesthetized with pentobarbital sodium (6 mg/100 g body weight, i.p.). A tracheotomy was performed to facilitate spontaneous breathing. A femoral vein was cannulated to inject supplemental anesthesia during the experiment (2-4 mg/100 g body weight/h). Body temperature was maintained constant (37-38° C.) and monitored via heating pad and a feed back controller throughout the experiment.
The bioactivity of the VIP in SSM by diffusing it in situ was determined by visualization of the microcirculation of the hamster cheek pouch. The microcirculation of the cheek pouch was visualized locally by a method previously developed in our laboratory (Suzuki et al., Life Sci. 57:1451-1457 (1995); Suzuki et al., Am. J. Physiol. 271:R393-R397 (1996); and Suzuki et al., Am. J. Physiol. 271:H282-H287 (1996)). Briefly, the left cheek pouch was spread over a small plastic baseplate, and an incision was made in the outer skin to expose the cheek pouch membrane. The connective avascular tissue layer was removed, and a plastic chamber was placed over the baseplate and secured in place by suturing the skin around the upper chamber. This forms a triple-layered complex: the baseplate, the exposed cheek pouch membrane, and the upper chamber. After these initial procedures, the hamster is transferred to a heated microscope stage. The chamber was connected to a reservoir containing warmed bicarbonate buffer (37-38° C.) that allowed continuous suffusion of the cheek pouch. The buffer was bubbled continuously with 95% N2-5% CO2 (pH 7.4). […]
The cheek pouch microcirculation was epi-illuminated with a 100-W mercury light source and viewed through a microscope (Nikon, Tokyo, Japan) at a magnification of ×40. […] The inner-wall diameter of second order arterioles ([…]), which modulated vascular resistance in the cheek pouch, (Raud, Acta Physiol. Scand. (Suppl.) 578:1-58 (1989); Suzuki et al., Life Sci. 57:1451-1457 (1995); Suzuki et al., Am. J. Physiol. 271:R393-R397 (1996)) was measured from the video display of the microscope image using a videomicrometer (VIA 100; Boeckeler Instruments, Tucson, Ariz.). […]

[2] = system: second order arterioles of the hamster cheek pouch microcirculation; conditions: Séjourné et al. 1997; cited from earlier work
[3] = Circular dichroism (CD) spectral analysis of peptide conformation, % helicity; assay type: physicochemical; conditions: room temperature
Method: According to this example, circular dichroism (CD) experiments were performed to determine the conformation changes of VIP in phospholipid micelles, pH and temperature changes, and in aqueous solutions. CD spectra were recorded on a JASCO J-700 spectropolarimeter using a fused quartz cell of 1 cm pathlength. Spectra in 0.15 N saline (pH 6.8) and 5 mM Hepes buffer (pH 7.4) were measured at a peptide concentration of 4 μM and at a lipid concentration of 1 mM. The effects of CaM, pH (6.8 or 7.4) and temperature (25° C. or 37° C.) on VIP conformation were also studied. The conformation of VIP fragments was likewise studied. All measurements were carried out at room temperature (˜25° C.) unless otherwise noted. A bandwidth of 1.0 nm and a step resolution of 0.5 nm were used to collect an average of 9 accumulations/sample at the […] (200-260 nm wavelength). The peptide spectra shown have the background buffer scans, and empty vesicle scans subtracted and were smoothed using the noise reduction function. The temperature during spectral analysis was maintained by using a circulating water bath attached to a jacket surrounding the fused quartz CD cell. The percent helical characterization of VIP was determined by a method of Haghjoo et al., Peptide Research 9 (6):327-331 (1996): % helicity=[−(θ208+4000)/29 000]*100 and are reported in table 1.
According to the example, CD was used to determine the conformation of VIP in saline, Hepes buffer and phospholipid micelles at room temperature and at 37° C. The CD spectra analysis was performed after 13 μg of human VIP incubated with 1 ml PEG-DSPE (1 μmol) micelles for 30 min at room temperature as determined by preliminary studies. A bandwidth of 1.0 nm and a step resolution of 0.5 nm were used to collect an average of 9 accumulations/sample at near UV range (200-260 nm). The temperature was maintained during spectral analysis by a circulating water bath attached to a jacket surrounding the fused quartz CD cell. The evaluation of VIP molecule conformation in SSM by using circular dichroism was successful because the distortion caused by spherical particles was eliminate due to the small size and univesicular structure of the SSM. […] The phospholipid micelles were ideal in our study of VIP conformation since it provided a hydrophobic core similar to the phospholipid bilayer of the SSL. Moreover, both the negative charge, and the hydrophilic layer provided by the PEG mimic the conditions of our SSL and make it possible to infer the VIP conformational results.
According to this example, the method of example 4 was repeated to determine the conformation of VIP in saline and phospholipid micelles plus calmodulin (CaM). CD spectra measurements were performed after 13 μg/ml of VIP was incubated with 1.0 μmol/ml of phospholipid micelles for 30 min followed by 10^−10 M CaM incubated with VIP in phospholipid micelles for 2 h at 4° C. (conjugation paper). A bandwidth of 1.0 nm and a step resolution of 0.5 nm were used to collect the average of 9 accumulations/sample at near UV range (200-260 nm).
According to this example the method of example 4 was repeated to determine the conformation of VIP fragments in saline and phospholipid micelles. CD spectra measurements were performed after incubation of VIP fragments with phospholipid micelles, at a molar concentration equivalent to VIP (i.e. 9 μg/ml for VIP10-28 fragment and 6 μg/ml for VIP1-12 fragment), for 30 min. A bandwidth of 1.0 nm and a step resolution of 0.5 nm were used to collect the average of 9 accumulations/sample at near UV range (200-260 nm). Specifically, CD spectra of human VIP fragment (1-12) and (10-28) in the presence of phospholipid micelles are shown in FIG. 5. […] These effects correlate well with the % helicity of VIP fragments determined in saline and in the presence of phospholipids (Table 1). […]

[4] = physchem; conditions: pH 7.4, aqueous with cosolvent or surfactant or cyclodextrin, thermodynamic from solid, paclitaxel solubilized by SSMM
Method: Solubilization potential of both micelle compositions for a model drug was measured by HPLC after separation of the unincorporated drug.
Excess drug was removed by centrifugation and the supernatant was analyzed by HPLC. […] HPLC eluent was measured with adsorption at 254 nm.
According to this example, micelle compositions of the invention were further characterized. Particularly, the physiochemical properties of sterically stabilized micelles prepared with DSPE conjugated to molecular weight 2000, 3000, and 5000 PEG were analyzed. The critical micelle concentration (CMC) of phospholipids was determined at pH 7.4 and 25° C. using a water-insoluble fluorescent probe (1,6-diphenyl-1,3,5-hexatriene). Micellar size was determined by quasi-elastic light scattering.
The solvent was then removed by vacuum rotary evaporation under a stream of argon to form a dry film. This dry film was further dried under vacuum overnight to remove any traces of remaining solvent. The dried film was rehydrated with isotonic 0.01M HEPES buffer, pH 7.4. The solution was then flushed with argon, sealed and equilibrated for 12 h at room temperature. The unsolubilized excess paclitaxel was removed by centrifugation at 13,000 g for 5 min to obtain a clear dispersion.
The solubilization potentials of SSMM and SSM for paclitaxel were determined by RP-HPLC. The clear aqueous dispersion was diluted with methanol. 20 μl of each sample was injected at least three times into a μBondapak C-18 column, 3.9 mm×30 cm (Waters, Milford, Mass.) equipped with a C18 column guard. The column was eluted with acetonitrile/water (60:40) at 1.0 ml/min (Waters 600). Detection was by UV absorption measurement at 227 nm (Waters 490). Peak areas were calculated by interfacing the detector to an electronic integrator (Hewlett Packard). The drug concentration was calculated from standard curves.

[5] = system: human breast cancer cells (MCF-7); assay: In vitro cytotoxic activity, sulforhodamine B; conditions: three days incubation
Method: The cytotoxic activity of paclitaxel in SSMM, SSM and dimethyl sulfoxide (10% DMSO) was determined against human breast cancer cells (MCF-7; ATCC # HTB-22). The cell line was maintained in RPMI 1640 medium containing 10% fetal bovine serum and 1.0% antibiotics (penicillin and streptomycin), in a 5% carbon dioxide humidified atmosphere at 37° C. Optimum solutions of paclitaxel-SSM and paclitaxel-SSMM chosen from the solubilization studies were used as the test solutions. A 10% dimethyl sulfoxide (DMSO) solution of paclitaxel was also tested as a control. […]
Briefly, samples were prepared as described earlier and serial dilutions were made to obtain paclitaxel concentrations ranging from 0.0013 to 4 μg/ml using the respective solvent that is either HEPES buffer or 10% DMSO. […] Each sample was evaluated in triplicate. […] The optical density was then read at 515 nm. The optical density readings obtained for the solvent controls were used to define 100% growth after correcting for the value obtained for the zero day control. These values were then expressed as a % survival and ED50 values calculated using non-linear regression analysis (percent survival versus concentration).
All the data are expressed as means±standard deviation (SD). […] ED50 values were calculated for each formulation and compared statistically using one-way analysis of variance. […]

Compound | effect on secretin- and secretin in SSM-induced vasodilation ([1]; VIP10-28 (50 nmol) suffused 30 min before and during secretin (5 nmol)) | effects on arteriolar diameter ([1]; suffusion of VIP10-28 alone (50 nmol)) | effect on VIP in SSL response [2] | effect on native VIP response [2] | Conformation from CD spectrum in the presence of phospholipid micelles (SSM) ([3]; phospholipid micelles (SSM)) | % Helicity (in the presence of) Phospholipids ([3]; phospholipids) [%] | % Helicity (in the presence of) Saline ([3]; saline) [%] | Conformation from CD spectrum in saline ([3]; saline) | solubility at 12 h [4] [µg/mL] | cytotoxic activity against MCF-7 cells [5]
VIP10-28: VIP fragment 10-28, a selective VIP receptor antagonist (YTRLRKQMAVKKYLNSILN; ends and bridges not checked; UniProt P01282 134-152, looked up, fragment) | abrogated | no significant effects | attenuated | completely abolished | predominantly α-helix structure | 18 | 3 | primarily random coil conformation | – | –
CC(=O)O[C@H]1C(=O)[C@@]2(C)[C@H]([C@H](OC(=O)c3ccccc3)[C@]3(O)C[C@H](OC(=O)[C@H](O)[C@@H](NC(=O)c4ccccc4)c4ccccc4)C(C)=C1C3(C)C)[C@]1(OC(C)=O)CO[C@@H]1C[C@@H]2O [paclitaxel] | – | – | – | – | – | – | – | – | 1320 ± 48 (≈ 1550 µM) | comparable cytotoxic activities
